Reference: patent US8987256B2, “Oxo-heterocyclic substituted carboxylic acid derivatives and the use thereof” (Bayer Intellectual Property GmbH, priority 2008, dated 2015)
pEC50: −log10 of the molar value.

Target: T1, soluble guanylate cyclase (sGC) (Rattus norvegicus, UniProt P20595)
T1 construct: made in house; host or cells: baculovirus/Sf9 insect cells
T1 sequence (P20595 1-619): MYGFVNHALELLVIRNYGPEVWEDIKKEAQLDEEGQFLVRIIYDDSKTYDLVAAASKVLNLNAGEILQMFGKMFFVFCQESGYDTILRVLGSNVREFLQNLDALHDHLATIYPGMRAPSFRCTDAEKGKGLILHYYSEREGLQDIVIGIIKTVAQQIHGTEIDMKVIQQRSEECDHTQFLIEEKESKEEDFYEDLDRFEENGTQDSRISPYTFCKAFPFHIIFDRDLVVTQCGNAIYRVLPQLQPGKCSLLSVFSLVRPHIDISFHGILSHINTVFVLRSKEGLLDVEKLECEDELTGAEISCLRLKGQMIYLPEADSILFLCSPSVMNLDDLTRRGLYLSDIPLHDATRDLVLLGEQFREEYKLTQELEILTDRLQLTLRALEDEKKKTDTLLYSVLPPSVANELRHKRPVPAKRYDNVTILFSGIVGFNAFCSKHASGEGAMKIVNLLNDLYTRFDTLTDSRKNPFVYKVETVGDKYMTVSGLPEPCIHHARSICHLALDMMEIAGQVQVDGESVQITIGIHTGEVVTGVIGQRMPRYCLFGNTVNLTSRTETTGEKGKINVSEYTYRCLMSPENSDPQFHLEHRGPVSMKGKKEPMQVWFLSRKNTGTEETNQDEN
T1 sequence (P19686 1-690 partner): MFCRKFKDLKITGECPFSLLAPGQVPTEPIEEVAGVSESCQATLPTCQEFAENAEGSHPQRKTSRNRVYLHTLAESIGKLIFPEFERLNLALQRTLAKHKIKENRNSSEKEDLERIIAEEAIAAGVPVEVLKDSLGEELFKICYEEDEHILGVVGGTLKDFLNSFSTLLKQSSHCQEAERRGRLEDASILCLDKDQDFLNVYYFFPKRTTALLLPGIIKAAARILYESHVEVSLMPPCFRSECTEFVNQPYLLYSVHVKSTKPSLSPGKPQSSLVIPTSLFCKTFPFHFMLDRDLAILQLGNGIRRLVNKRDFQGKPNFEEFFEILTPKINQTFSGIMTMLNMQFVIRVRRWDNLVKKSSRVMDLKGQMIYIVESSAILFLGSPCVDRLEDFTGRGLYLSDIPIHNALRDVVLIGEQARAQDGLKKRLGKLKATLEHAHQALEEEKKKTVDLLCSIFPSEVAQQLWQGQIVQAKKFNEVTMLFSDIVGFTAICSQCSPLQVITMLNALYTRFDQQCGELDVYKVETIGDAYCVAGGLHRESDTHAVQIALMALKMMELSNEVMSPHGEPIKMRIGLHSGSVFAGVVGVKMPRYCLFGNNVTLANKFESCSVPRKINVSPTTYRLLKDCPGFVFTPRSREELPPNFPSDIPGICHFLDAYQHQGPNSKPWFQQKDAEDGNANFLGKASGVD
Experiment: Activating action at the sGC enzyme in vitro (PPi detection, luciferase)
Assay type: biochemical
Summary of the method: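 Rat sGC (0–10 nM) preincubated 10 min at room temperature with compound in TEA buffer, pH 7.5; reaction started with GTP (1.25 mM solution). PPi formed read continuously by luciferase luminescence; stimulation expressed relative to unstimulated enzyme. Heme-free enzyme tested after 30 min with 25 μM ODQ.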

Structure (SMILES): O=C(O)CCc1cccc(NC(=O)C(c2ccc(CN3N=C(c4ccccc4)OCC3=O)cc2)C2CCCC2)c1 (single isomer, unassigned) [Example 103, 3-{3-[(Cyclopentyl{4-[(5-oxo-2-phenyl-5,6-dihydro-4H-1,3,4-oxadiazin-4-yl)methyl]phenyl}acetyl)amino]phenyl}propanoic acid]
- MEC (minimum effective concentration), activating action at the sGC enzyme: 20 nM
- pEC50 (read-out: EC50 (concentration at 50% of maximum efficacy), activating action at the sGC enzyme): 6.42
